How the values were obtained:
[1] = Liquid; for mass density: 298.15 K, 101.3 kPa; for Normal boiling temperature: Ebulliometric method (Recirculating still)
[2] = excess molar enthalpy (molar enthalpy of mixing); xn = mol fraction of the nth substance listed; settings: 101.3 kPa, Liquid, Flow calorimetry

CC(C)O [propan-2-ol]
[1]
Settings	Normal boiling temperature [°C]	mass density [kg/m3]
–	82.20	781.1

CCCO [propan-1-ol]
[1]
Settings	Normal boiling temperature [°C]	mass density [kg/m3]
–	97.16	799.8

CCC(C)O (configuration not stated) [butan-2-ol] + OCCO
excess molar enthalpy [kJ/mol], [2]
Settings	298.15 K	308.15 K	323.15 K
x2 = 0.081	0.274	0.244	0.176
x2 = 0.1557	0.458	0.421	0.325
x2 = 0.226	0.571	0.537	0.433
x2 = 0.2923	0.643	0.607	0.502
x2 = 0.3549	0.686	0.649	0.547
x2 = 0.4142	0.701	0.672	0.572
x2 = 0.4703	0.701	0.674	0.583
x2 = 0.5235	0.69	0.665	0.58
x2 = 0.5741	0.669	0.646	0.571
x2 = 0.6222	0.635	0.621	0.553
x2 = 0.6681	0.602	0.584	0.525
x2 = 0.7117	0.556	0.545	0.491
x2 = 0.7535	0.511	0.498	0.454
x2 = 0.7933	0.449	0.442	0.41
x2 = 0.8314	0.389	0.383	0.356
x2 = 0.868	0.325	0.322	0.297
x2 = 0.9029	0.252	0.252	0.23
x2 = 0.9365	0.176	0.173	0.156
x2 = 0.9687	0.0933	0.0924	0.0805

CCO [ethanol]
[1]
Settings	Normal boiling temperature [°C]	mass density [kg/m3]
–	78.26	785.2

OCCO [1,2-ethanediol] + CCCCO
excess molar enthalpy [kJ/mol], [2]
Settings	298.15 K	308.15 K	323.15 K
x1 = 0.0798	–	–	0.324
x1 = 0.0803	0.296	0.312	–
x1 = 0.1548	0.482	0.512	–
x1 = 0.1552	–	–	0.52
x1 = 0.225	0.603	0.635	–
x1 = 0.2253	–	–	0.667
x1 = 0.2912	0.675	0.714	–
x1 = 0.2914	–	–	0.749
x1 = 0.3537	0.718	0.758	–
x1 = 0.354	–	–	0.797
x1 = 0.4129	0.737	0.78	–
x1 = 0.4131	–	–	0.824
x1 = 0.4691	0.74	0.784	–
x1 = 0.4692	–	–	0.831
x1 = 0.5223	–	0.773	–
x1 = 0.5224	0.733	–	0.82
x1 = 0.573	0.71	0.752	0.797
x1 = 0.6211	–	0.721	0.769
x1 = 0.6212	0.681	–	–
x1 = 0.6671	0.645	0.683	0.719
x1 = 0.7108	–	–	0.671
x1 = 0.7109	0.599	0.638	–
x1 = 0.7527	0.554	0.58	0.616
x1 = 0.7926	0.489	0.519	0.553
x1 = 0.8308	0.429	0.452	–
x1 = 0.8309	–	–	0.483
x1 = 0.8675	0.359	0.382	0.395
x1 = 0.9026	0.284	0.299	0.313
x1 = 0.9362	0.195	0.203	–
x1 = 0.9363	–	–	0.218
x1 = 0.9686	0.102	0.109	–
x1 = 0.9687	–	–	0.112

OCCO [1,2-ethanediol] + CCO
excess molar enthalpy [kJ/mol], [2]
Settings	298.15 K	308.15 K	323.15 K
x1 = 0.0526	0.111	0.119	0.129
x1 = 0.1045	0.199	0.212	0.229
x1 = 0.1561	0.266	0.284	0.307
x1 = 0.2075	0.317	0.338	0.366
x1 = 0.2587	0.351	0.378	0.409
x1 = 0.3096	0.379	0.406	0.439
x1 = 0.3604	0.395	0.423	0.457
x1 = 0.4109	0.403	0.43	0.464
x1 = 0.4611	0.403	0.43	0.464
x1 = 0.5112	0.396	0.421	0.452
x1 = 0.561	0.381	0.406	0.438
x1 = 0.6106	0.359	0.383	0.413
x1 = 0.66	0.332	0.355	0.381
x1 = 0.7092	0.3	0.32	0.344
x1 = 0.7581	0.264	0.28	0.303
x1 = 0.8069	0.221	0.235	0.252
x1 = 0.8554	0.172	0.181	0.197
x1 = 0.9037	0.116	0.128	0.138
x1 = 0.9518	0.0615	0.0651	0.0709
